Tests used:
[1] = Stability in organic medium (dimethyl sulfoxide) by UV-Vis spectroscopy; format: physicochemical; settings: for Relative variation of the maximum absorbance of the π→π* transitions: band 289-300 nm (λmax in column head); for Relative variation of the maximum absorbance of the charge transfer bands: band 357-425 nm (λmax in column head)
Description: (§1) The stability of the complexes 4-11 in organic and aqueous media was evaluated over 24 h by UV-Vis spectroscopy at room temperature, in dark, on a Jasco V-660 spectrometer using quartz cuvettes (1 cm optical path length). The electronic spectra (270-900 nm) were acquired at regular periods of time (0 h, 0.25 h, 0.5 h, 0.75 h, 1 h, 2 h, 3 h, 4 h, 5 h, 6 h, 24 h) for solutions of 100% dimethyl sulfoxide (complexes 4-11) and 5% dimethyl sulfoxide/95% Dulbecco's Modified Eagle Medium (complexes 4, 5 and 8-11) or 10% dimethyl sulfoxide/90% Dulbecco's Modified Eagle Medium (complexes 6 and 7) at concentrations ranging from 7.0×10^-5 M to 3.0×10^-4 M.

MDA-MB-231 (FGFR−) = experiment: MTT cytotoxicity assay; settings: MDA-MB-231
Description: By way of example, the in vitro cytotoxicity of the conjugate RuPC1, complex 4 and peptide P2 was determined in four human breast cancer cell lines with different levels of expression of the receptor FGFR, namely MDA-MB-231 (FGFR−), MCF-7 (FGFR−), SK-BR-3 (FGFR+), and MDA-MB-134-VI (FGFR+). The cytotoxicity of RuPC1 was also determined in the stated cell lines at controlled pH 6.8 and 7.4. The cytotoxicity of the complexes 5, 8, 9, and the reference complex (2,2′-bipyridyl)(triphenylphosphane)(f-cyclopentadienyl)ruthenium(II) trifluoromethanesulfonate, [RuCp(PPh3)(bipy)][CF3SO3] (TM34) was only determined in the cell line MDA-MB-231. All the cell lines were from the American Type Culture Collection (ATCC) and were cultured in Dulbecco's Modified Eagle Medium+Glutamax-I (Gibco) supplemented with 10% fetal bovine serum (FBS) and 1% antibiotics, excepting the MDA-MB-134-VI for which it was used the double amount of FBS. The cell cultures were kept in an incubator Heraeus at 37° C. under humidified atmosphere at 5% CO2. The cell viability was evaluated resorting to the MTT ([3-(4,5-dimethylthiazol-2-yl)-2,5-diphenyltetrazolium bromide]) colorimetric assay, which is based on the reduction of the tetrazolium salt to purple formazan by mitochondrial dehydrogenases in metabolically active cells. For the assays, the cells were seeded in 96-well plates (2×10^4 to 3×10^4 cells/200 μL) and allowed to adhere overnight. The compounds were first dissolved in dimethyl sulfoxide to obtain 10 mM stock solutions, further used to prepare the working solutions, at 0.1 to 100 μM, by dilution in the cell culture medium. Alternatively, for the assays at controlled pH 6.8 and 7.4, RuPC1 was first dissolved in a solution of 15% dimethyl sulfoxide/85% phosphate buffer (10 mM in water) to obtain 1.5 mM stock solutions further incubated for 48 hours at both pH values prior to be used to prepare the working solutions, at 0.1 to 50 μM, by dilution in the cell culture medium. In both cases, after continuous exposure of the cells to the compounds for 48 h at 37° C., the medium was removed and the cells were incubated with 200 μL of MTT solution (0.5 mg/mL) for 3 h. Then, the solution was discarded and the purple formazan formed by the viable cells was dissolved in 200 μL of dimethyl sulfoxide. The cell viability (%) was determined relative to the control (cells incubated without compounds) by measuring the absorbance at 570 nm on a PowerWave Xs Bio-Tek Instruments plate spectrophotometer. The respective values of the half maximal inhibitory concentration (IC50) were calculated with the software GraphPad Prism. All the compounds were tested in at least two independent experiments, each comprising six replicates per concentration.

[2] = Stability in aqueous medium (dimethyl sulfoxide/Dulbecco's Modified Eagle Medium) by UV-Vis spectroscopy; format: physicochemical; settings: 5% dimethyl sulfoxide/95% Dulbecco's Modified Eagle Medium; for Relative variation of the maximum absorbance of the π→π* transitions: band 292-296 nm (λmax in column head); for Relative variation of the maximum absorbance of the charge transfer bands: band 358-400 nm (λmax in column head)
Description: as §1

SMILES: CC(=O)C1=C[CH]([Ru-]2([PH](c3ccccc3)(c3ccccc3)c3ccccc3)[n+]3ccccc3-c3cccc[n+]32)C=C1.O=S(=O)([O-])C(F)(F)F (stereo not shown) [compound 5]
- Relative variation of the maximum absorbance of the π→π* transitions ([1]; time 0 h): 0.0%
- Relative variation of the maximum absorbance of the charge transfer bands ([1]; time 0 h): 0.0%
- Relative variation of the maximum absorbance of the π→π* transitions ([1]; time 0.25 h): 0.3%
- Relative variation of the maximum absorbance of the charge transfer bands ([1]; time 0.25 h): 0.1%
- Relative variation of the maximum absorbance of the π→π* transitions ([1]; time 0.5 h): −0.5%
- Relative variation of the maximum absorbance of the charge transfer bands ([1]; time 0.5 h): 0.0%
- Relative variation of the maximum absorbance of the π→π* transitions ([1]; time 0.75 h): −0.4%
- Relative variation of the maximum absorbance of the charge transfer bands ([1]; time 0.75 h): 0.2%
- Relative variation of the maximum absorbance of the π→π* transitions ([1]; time 1 h): −0.3%
- Relative variation of the maximum absorbance of the charge transfer bands ([1]; time 1 h): 0.1%
- Relative variation of the maximum absorbance of the π→π* transitions ([1]; time 2 h): −0.9%
- Relative variation of the maximum absorbance of the charge transfer bands ([1]; time 2 h): 0.3%
- Relative variation of the maximum absorbance of the π→π* transitions ([1]; time 3 h): −1.2%
- Relative variation of the maximum absorbance of the charge transfer bands ([1]; time 3 h): 0.3%
- Relative variation of the maximum absorbance of the π→π* transitions ([1]; time 4 h): −1.2%
- Relative variation of the maximum absorbance of the charge transfer bands ([1]; time 4 h): 0.3%
- Relative variation of the maximum absorbance of the π→π* transitions ([1]; time 5 h): −1.5%
- Relative variation of the maximum absorbance of the charge transfer bands ([1]; time 5 h): 0.5%
- Relative variation of the maximum absorbance of the π→π* transitions ([1]; time 6 h): −1.5%
- Relative variation of the maximum absorbance of the charge transfer bands ([1]; time 6 h): 0.2%
- Relative variation of the maximum absorbance of the π→π* transitions ([1]; time 24 h): −1.9%
- Relative variation of the maximum absorbance of the charge transfer bands ([1]; time 24 h): 0.3%
- IC50 range in words (MDA-MB-231 (FGFR−); Example 24): sub-micromolar range
- IC50 (MDA-MB-231 (FGFR−); read-out: Cytotoxic activity expressed as IC50, Table 5, 48 h, 37° C.): 0.36 µM
- Relative variation of the maximum absorbance of the π→π* transitions ([2]; time 0 h): 0.0%
- Relative variation of the maximum absorbance of the charge transfer bands ([2]; time 0 h): 0.0%
- Relative variation of the maximum absorbance of the π→π* transitions ([2]; time 0.25 h): 0.6%
- Relative variation of the maximum absorbance of the charge transfer bands ([2]; time 0.25 h): −1.0%
- Relative variation of the maximum absorbance of the π→π* transitions ([2]; time 0.5 h): −0.1%
- Relative variation of the maximum absorbance of the charge transfer bands ([2]; time 0.5 h): −2.1%
- Relative variation of the maximum absorbance of the π→π* transitions ([2]; time 0.75 h): 0.3%
- Relative variation of the maximum absorbance of the charge transfer bands ([2]; time 0.75 h): −2.7%
- Relative variation of the maximum absorbance of the π→π* transitions ([2]; time 1 h): 0.0%
- Relative variation of the maximum absorbance of the charge transfer bands ([2]; time 1 h): −3.4%
- Relative variation of the maximum absorbance of the π→π* transitions ([2]; time 2 h): 1.0%
- Relative variation of the maximum absorbance of the charge transfer bands ([2]; time 2 h): −1.2%
- Relative variation of the maximum absorbance of the π→π* transitions ([2]; time 3 h): 0.7%
- Relative variation of the maximum absorbance of the charge transfer bands ([2]; time 3 h): −3.4%
- Relative variation of the maximum absorbance of the π→π* transitions ([2]; time 4 h): 0.7%
- Relative variation of the maximum absorbance of the charge transfer bands ([2]; time 4 h): −4.1%
- Relative variation of the maximum absorbance of the π→π* transitions ([2]; time 5 h): 0.7%
- Relative variation of the maximum absorbance of the charge transfer bands ([2]; time 5 h): −5.1%
- Relative variation of the maximum absorbance of the π→π* transitions ([2]; time 6 h): 2.1%
- Relative variation of the maximum absorbance of the charge transfer bands ([2]; time 6 h): 0.3%
- Relative variation of the maximum absorbance of the π→π* transitions ([2]; time 24 h): −1.8%
- Relative variation of the maximum absorbance of the charge transfer bands ([2]; time 24 h): −3.0%

Source: patent US20250195463A1, “ORGANOMETALLIC COMPLEX, CONTROLLED-RELEASE MULTI-FUNCTIONAL DRUG, PHARMACEUTICAL COMPOSITION, PROCESSES FOR THE PREPARATION THEREOF AND THEIR USE” (FACULDADE DE CIÊNCIAS DA UNIVERSIDADE DE LISBOA, priority 2022, published 2025)
